Measured values reported in ChEMBL document CHEMBL1201862, “PubChem BioAssay data set” (2004).
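Five concentrations, 48 hours, 96-well plates. GI50 marks 50% less growth.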 Active and inactive are the calls of the source. No stated cut-off is given here; in the data, active = GI50 up to about 1.1 µM and inactive = higher.

Columns and labels:
Test in all cases: NCI-60 cell line screen, 48 h
LXFL 529 = tested on: LXFL 529
XF498 = tested on: XF498
M19-MEL = tested on: M19-MEL
DMS-114 = tested on: DMS-114
HOP-18 = tested on: HOP-18
DMS-273 = tested on: DMS-273
DLD-1 = tested on: DLD-1
SNB-78 = tested on: SNB-78
RXF 631 = tested on: RXF 631

With COc1cc(Nc2nc3cc(C)ccc3nc2-c2ccccc2)cc(OC)c1OC the GI50 (LXFL 529) was 39.7 µM (inactive), the GI50 (XF498) was 19.7 µM (inactive) and the GI50 (M19-MEL) was 24.2 µM (inactive). For the same compound, the GI50 (DMS-114) was 6.9 µM (inactive), the GI50 (HOP-18) was 24.3 µM (inactive) and the GI50 (DMS-273) was 11.8 µM (inactive).
COC(=O)n1c(C[P+](c2ccccc2)(c2ccccc2)c2ccccc2)cc2ccccc21 was tested, and the GI50 (DLD-1) was 1.06 µM (active), the GI50 (LXFL 529) was 0.372 µM (active) and the GI50 (XF498) was 0.746 µM (active). For the same compound, the GI50 (M19-MEL) was 0.452 µM (active), the GI50 (DMS-114) was 1.09 µM (active) and the GI50 (DMS-273) was 0.697 µM (active). For the same compound, the GI50 (SNB-78) was 3.37 µM (inactive).
In the case of O=c1[nH]c(-c2ccc(-c3nc4cc([N+](=O)[O-])ccc4c(=O)[nH]3)cc2)nc2cc([N+](=O)[O-])ccc12, the GI50 (DLD-1) is reported as > 100 µM (inactive), the GI50 (LXFL 529) is reported as > 100 µM (inactive) and the GI50 (M19-MEL) is reported as > 100 µM (inactive). The GI50 (DMS-114) was > 100 µM (inactive), the GI50 (DMS-273) was > 100 µM (inactive) and the GI50 (SNB-78) was > 100 µM (inactive). The GI50 (RXF 631) was > 100 µM (inactive).
For CCOC(=O)C(N)CSC(=O)NC (centres undefined), the GI50 (DLD-1) was 130 µM (inactive), the GI50 (XF498) was 104 µM (inactive) and the GI50 (M19-MEL) was 64.6 µM (inactive). The GI50 (DMS-114) was 51.3 µM (inactive), the GI50 (HOP-18) was 357 µM (inactive) and the GI50 (DMS-273) was 83.6 µM (inactive).
COc1ccc(/C=C(\NC(=O)c2ccccc2)c2nc3ccccc3[nH]2)cc1 was tested, and the GI50 (DLD-1) was 33.6 µM (inactive), the GI50 (LXFL 529) was 27.4 µM (inactive) and the GI50 (XF498) was 18.5 µM (inactive). The GI50 (M19-MEL) was 35.6 µM (inactive), the GI50 (DMS-114) was 24.8 µM (inactive) and the GI50 (DMS-273) was 29.5 µM (inactive).
In the case of COc1ccc(C)cc1-c1cc(Sc2ccccc2)c(-c2cc(C)ccc2OC)o1, the GI50 (DLD-1) is reported as > 31.6 µM (inactive), the GI50 (LXFL 529) is reported as > 31.6 µM (inactive) and the GI50 (XF498) is reported as > 100 µM (inactive). For the same compound, the GI50 (M19-MEL) was > 31.6 µM (inactive), the GI50 (DMS-114) was > 31.6 µM (inactive) and the GI50 (HOP-18) was > 31.6 µM (inactive). For the same compound, the GI50 (DMS-273) was > 31.6 µM (inactive), the GI50 (SNB-78) was > 31.6 µM (inactive) and the GI50 (RXF 631) was > 31.6 µM (inactive).
With C[C@]12CC/C(=N\OC(=O)Nc3ccccc3)C=C1CC[C@@H]1C2CC[C@@]2(C)C1CC[C@@H]2OC(=O)Nc1ccccc1 (some centres undefined) the GI50 (LXFL 529) was 15.5 µM (inactive), the GI50 (XF498) was 13.4 µM (inactive) and the GI50 (M19-MEL) was 66.4 µM (inactive). For the same compound, the GI50 (DMS-114) was 23.2 µM (inactive), the GI50 (HOP-18) was > 100 µM (inactive) and the GI50 (DMS-273) was > 100 µM (inactive). The GI50 (SNB-78) was > 100 µM (inactive).
O=C1c2ccccc2C(=O)c2c1ccc1c3ccccc3n(Cc3ccccc3)c21 was tested, and the GI50 (DLD-1) was > 100 µM (inactive), the GI50 (LXFL 529) was > 100 µM (inactive) and the GI50 (XF498) was > 100 µM (inactive). The GI50 (M19-MEL) was 88.7 µM (inactive), the GI50 (DMS-114) was > 100 µM (inactive) and the GI50 (HOP-18) was 0.0319 µM (active).
O=C1c2nc3n(c2C(=O)c2c1nc1n2CCC1)CCC3 was tested, and the GI50 (DLD-1) was 5.09 µM (inactive), the GI50 (LXFL 529) was 9.93 µM (inactive) and the GI50 (XF498) was 6.38 µM (inactive). The GI50 (M19-MEL) was 0.184 µM (active), the GI50 (DMS-114) was 2.04 µM (inactive) and the GI50 (HOP-18) was 14 µM (inactive). For the same compound, the GI50 (DMS-273) was 3.3 µM (inactive) and the GI50 (SNB-78) was 13.8 µM (inactive).
In the case of NC(=O)C12CC3CC(CC(Br)(C3)C1)C2, the GI50 (DLD-1) is reported as > 100 µM (inactive), the GI50 (LXFL 529) is reported as > 100 µM (inactive) and the GI50 (XF498) is reported as > 100 µM (inactive). For the same compound, the GI50 (DMS-114) was > 100 µM (inactive), the GI50 (HOP-18) was > 100 µM (inactive) and the GI50 (DMS-273) was > 100 µM (inactive). For the same compound, the GI50 (SNB-78) was > 100 µM (inactive) and the GI50 (RXF 631) was > 100 µM (inactive).
CC1(Sc2ccccc2)CN(Cc2ccccc2)C1=O (centres undefined) was tested, and the GI50 (DLD-1) was > 100 µM (inactive), the GI50 (XF498) was 39.5 µM (inactive) and the GI50 (M19-MEL) was > 100 µM (inactive). For the same compound, the GI50 (DMS-114) was 45.6 µM (inactive), the GI50 (HOP-18) was > 100 µM (inactive) and the GI50 (DMS-273) was > 100 µM (inactive). For the same compound, the GI50 (SNB-78) was > 100 µM (inactive) and the GI50 (RXF 631) was > 100 µM (inactive).
With CC(C)[C@H]1CO[C@]2(C)[C@@H]3CN(Cc4ccccc4)C[C@@H]3C(=O)N12 the GI50 (DLD-1) was > 100 µM (inactive), the GI50 (LXFL 529) was > 100 µM (inactive) and the GI50 (M19-MEL) was > 100 µM (inactive). The GI50 (DMS-114) was > 100 µM (inactive), the GI50 (HOP-18) was > 100 µM (inactive) and the GI50 (DMS-273) was > 100 µM (inactive).
